{"source": "paper PMC7026418", "about": "“The kinase polypharmacology landscape of clinical PARP inhibitors” (Scientific Reports, 2020)", "assay_in_all_cases": "biochemical", "design_in_all_cases": "DiscoveRx KINOMEscan active site-directed competition binding; percent of control kinase bound to immobilised ligand", "key": {"MYLK": {"target": "MYLK (Homo sapiens, UniProt Q15746)", "sequence (Q15746 whole entry)": "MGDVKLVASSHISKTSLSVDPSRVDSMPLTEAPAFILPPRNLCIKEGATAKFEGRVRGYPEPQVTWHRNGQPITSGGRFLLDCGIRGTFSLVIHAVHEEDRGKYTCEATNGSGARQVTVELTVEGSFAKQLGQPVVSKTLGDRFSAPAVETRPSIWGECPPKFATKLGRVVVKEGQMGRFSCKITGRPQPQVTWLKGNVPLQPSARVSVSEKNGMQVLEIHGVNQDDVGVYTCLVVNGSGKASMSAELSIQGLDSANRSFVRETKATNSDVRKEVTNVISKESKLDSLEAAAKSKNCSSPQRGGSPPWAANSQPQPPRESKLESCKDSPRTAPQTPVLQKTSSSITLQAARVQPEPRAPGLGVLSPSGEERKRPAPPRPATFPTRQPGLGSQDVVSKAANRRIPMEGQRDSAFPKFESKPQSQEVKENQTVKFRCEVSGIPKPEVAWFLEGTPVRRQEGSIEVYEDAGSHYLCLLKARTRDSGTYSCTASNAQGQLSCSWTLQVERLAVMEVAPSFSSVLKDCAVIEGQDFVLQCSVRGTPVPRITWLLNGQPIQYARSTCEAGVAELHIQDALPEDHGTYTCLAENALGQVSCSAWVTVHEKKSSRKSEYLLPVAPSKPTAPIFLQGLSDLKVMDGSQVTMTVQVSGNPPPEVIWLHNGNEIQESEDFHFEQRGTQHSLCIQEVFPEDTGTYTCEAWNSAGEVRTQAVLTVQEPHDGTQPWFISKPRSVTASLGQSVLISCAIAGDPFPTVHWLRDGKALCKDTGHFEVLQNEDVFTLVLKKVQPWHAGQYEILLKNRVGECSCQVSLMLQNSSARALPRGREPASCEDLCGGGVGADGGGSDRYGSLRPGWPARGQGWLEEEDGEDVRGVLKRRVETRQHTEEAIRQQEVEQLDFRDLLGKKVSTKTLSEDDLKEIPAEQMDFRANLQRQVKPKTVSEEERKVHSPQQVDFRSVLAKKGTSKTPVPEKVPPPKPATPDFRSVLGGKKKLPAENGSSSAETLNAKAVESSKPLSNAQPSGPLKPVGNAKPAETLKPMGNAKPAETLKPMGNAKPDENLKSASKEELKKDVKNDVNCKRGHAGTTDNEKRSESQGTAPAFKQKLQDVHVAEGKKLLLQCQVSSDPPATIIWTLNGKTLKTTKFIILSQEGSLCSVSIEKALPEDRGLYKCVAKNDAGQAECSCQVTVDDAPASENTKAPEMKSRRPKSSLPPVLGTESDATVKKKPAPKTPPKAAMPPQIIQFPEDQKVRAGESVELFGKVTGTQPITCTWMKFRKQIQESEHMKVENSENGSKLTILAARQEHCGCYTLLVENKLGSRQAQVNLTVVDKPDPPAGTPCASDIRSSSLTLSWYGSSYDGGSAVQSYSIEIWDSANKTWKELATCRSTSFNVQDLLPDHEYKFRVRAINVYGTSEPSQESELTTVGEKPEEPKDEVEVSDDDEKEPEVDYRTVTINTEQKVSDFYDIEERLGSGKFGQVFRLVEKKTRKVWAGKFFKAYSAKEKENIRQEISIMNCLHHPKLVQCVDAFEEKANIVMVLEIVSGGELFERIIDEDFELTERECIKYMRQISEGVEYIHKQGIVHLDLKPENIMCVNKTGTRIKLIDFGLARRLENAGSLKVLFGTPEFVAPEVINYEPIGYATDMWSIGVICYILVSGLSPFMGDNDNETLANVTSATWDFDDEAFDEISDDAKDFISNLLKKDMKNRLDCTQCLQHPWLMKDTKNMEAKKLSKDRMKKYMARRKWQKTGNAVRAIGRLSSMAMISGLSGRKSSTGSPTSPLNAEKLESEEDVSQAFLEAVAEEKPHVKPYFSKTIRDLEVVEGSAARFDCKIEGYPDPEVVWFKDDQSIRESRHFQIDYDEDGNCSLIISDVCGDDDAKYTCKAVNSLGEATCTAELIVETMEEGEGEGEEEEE"}, "[1]": {"target": "T1, TYK2(JH2domain-pseudokinase) (Homo sapiens, UniProt P29597)", "T1 construct": "JH2domain-pseudokinase", "T1 sequence (P29597 whole entry)": "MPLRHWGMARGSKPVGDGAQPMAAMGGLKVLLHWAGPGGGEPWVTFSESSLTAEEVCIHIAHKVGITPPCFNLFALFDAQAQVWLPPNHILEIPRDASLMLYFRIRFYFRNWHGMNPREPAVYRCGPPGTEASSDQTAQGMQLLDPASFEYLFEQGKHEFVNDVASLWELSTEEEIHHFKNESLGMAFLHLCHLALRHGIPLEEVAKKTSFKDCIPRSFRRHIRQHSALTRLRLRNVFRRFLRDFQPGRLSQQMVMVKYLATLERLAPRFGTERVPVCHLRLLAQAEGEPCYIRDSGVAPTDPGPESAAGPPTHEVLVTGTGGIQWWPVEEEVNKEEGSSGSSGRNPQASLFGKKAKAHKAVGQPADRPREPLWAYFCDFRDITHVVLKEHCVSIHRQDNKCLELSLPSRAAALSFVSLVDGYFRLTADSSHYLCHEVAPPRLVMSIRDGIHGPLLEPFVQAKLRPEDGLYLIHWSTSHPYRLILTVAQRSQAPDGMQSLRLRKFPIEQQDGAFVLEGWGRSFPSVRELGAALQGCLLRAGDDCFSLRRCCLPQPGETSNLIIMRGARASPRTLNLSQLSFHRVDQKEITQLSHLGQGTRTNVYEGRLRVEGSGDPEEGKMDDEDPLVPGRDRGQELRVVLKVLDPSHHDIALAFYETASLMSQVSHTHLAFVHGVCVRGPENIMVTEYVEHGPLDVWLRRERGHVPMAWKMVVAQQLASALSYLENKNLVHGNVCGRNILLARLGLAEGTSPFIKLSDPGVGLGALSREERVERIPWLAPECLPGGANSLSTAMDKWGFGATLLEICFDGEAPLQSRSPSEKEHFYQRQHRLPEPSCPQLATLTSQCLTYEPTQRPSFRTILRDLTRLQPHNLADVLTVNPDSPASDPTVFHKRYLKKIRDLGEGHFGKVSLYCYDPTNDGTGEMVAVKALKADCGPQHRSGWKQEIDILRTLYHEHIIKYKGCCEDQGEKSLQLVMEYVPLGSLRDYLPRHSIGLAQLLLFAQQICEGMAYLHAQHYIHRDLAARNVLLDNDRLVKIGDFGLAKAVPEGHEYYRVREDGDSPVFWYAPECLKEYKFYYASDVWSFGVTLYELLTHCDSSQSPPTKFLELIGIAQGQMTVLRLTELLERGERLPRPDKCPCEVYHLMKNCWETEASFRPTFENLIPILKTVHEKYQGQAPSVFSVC"}, "HUNK": {"target": "T2, HUNK (Homo sapiens, UniProt P57058)", "T2 sequence (P57058 1-714)": "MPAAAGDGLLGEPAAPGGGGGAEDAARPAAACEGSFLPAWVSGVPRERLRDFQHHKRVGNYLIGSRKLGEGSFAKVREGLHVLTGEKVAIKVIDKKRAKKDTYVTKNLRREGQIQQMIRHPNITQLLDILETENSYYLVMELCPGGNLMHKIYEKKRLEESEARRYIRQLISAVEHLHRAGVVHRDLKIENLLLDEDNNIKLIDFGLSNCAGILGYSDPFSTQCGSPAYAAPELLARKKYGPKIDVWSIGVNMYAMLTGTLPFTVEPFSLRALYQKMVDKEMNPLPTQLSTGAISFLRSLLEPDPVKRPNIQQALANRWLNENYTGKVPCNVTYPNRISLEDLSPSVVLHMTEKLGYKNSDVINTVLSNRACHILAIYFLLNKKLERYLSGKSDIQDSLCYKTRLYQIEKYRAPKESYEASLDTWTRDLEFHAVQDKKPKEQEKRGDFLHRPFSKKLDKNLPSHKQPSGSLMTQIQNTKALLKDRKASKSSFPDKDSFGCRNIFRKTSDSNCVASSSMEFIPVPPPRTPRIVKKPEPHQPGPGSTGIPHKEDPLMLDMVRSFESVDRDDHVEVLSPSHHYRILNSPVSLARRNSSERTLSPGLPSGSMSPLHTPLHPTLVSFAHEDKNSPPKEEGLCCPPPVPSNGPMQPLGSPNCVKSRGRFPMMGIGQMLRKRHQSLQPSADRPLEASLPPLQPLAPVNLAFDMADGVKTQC"}, "IGF1R": {"target": "IGF1R (Homo sapiens, UniProt P08069)", "sequence (P08069 whole entry)": "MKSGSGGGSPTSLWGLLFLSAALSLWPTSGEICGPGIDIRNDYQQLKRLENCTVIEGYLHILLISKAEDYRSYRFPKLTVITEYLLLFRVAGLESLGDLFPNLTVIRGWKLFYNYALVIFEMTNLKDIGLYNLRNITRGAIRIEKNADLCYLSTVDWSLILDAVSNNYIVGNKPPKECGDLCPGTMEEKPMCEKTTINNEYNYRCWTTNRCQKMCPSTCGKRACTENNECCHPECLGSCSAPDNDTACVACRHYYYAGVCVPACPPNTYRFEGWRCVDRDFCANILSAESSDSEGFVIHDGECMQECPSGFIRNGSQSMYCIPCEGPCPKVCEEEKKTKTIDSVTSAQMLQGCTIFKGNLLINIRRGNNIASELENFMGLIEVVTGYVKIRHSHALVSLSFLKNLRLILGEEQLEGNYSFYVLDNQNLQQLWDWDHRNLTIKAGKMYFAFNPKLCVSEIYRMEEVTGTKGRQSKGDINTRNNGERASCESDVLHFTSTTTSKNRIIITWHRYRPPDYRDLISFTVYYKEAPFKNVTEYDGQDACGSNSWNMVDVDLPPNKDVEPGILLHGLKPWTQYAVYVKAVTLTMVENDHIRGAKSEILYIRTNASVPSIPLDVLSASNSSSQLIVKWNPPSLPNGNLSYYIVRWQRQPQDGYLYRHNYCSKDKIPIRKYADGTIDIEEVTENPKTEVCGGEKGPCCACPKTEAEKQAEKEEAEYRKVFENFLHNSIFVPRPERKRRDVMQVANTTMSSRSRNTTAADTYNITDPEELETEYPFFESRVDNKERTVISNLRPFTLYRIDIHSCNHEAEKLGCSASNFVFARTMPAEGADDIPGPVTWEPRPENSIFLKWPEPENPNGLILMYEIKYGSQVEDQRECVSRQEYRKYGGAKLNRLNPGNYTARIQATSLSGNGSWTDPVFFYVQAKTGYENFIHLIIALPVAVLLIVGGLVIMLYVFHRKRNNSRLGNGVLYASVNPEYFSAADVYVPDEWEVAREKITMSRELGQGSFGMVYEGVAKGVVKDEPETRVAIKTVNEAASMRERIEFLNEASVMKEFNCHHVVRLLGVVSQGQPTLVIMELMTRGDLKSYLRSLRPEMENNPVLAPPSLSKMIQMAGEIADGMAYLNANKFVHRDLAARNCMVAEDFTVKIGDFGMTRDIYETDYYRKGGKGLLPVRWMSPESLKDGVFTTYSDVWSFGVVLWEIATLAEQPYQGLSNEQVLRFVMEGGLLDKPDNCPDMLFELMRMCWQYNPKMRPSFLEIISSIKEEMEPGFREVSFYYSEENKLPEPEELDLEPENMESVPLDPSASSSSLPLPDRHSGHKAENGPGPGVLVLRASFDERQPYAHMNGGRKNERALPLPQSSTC"}, "ICK": {"target": "T3, ICK (Homo sapiens, UniProt Q9UPZ9)", "T3 construct": "gene CILK1", "T3 sequence (Q9UPZ9 1-632)": "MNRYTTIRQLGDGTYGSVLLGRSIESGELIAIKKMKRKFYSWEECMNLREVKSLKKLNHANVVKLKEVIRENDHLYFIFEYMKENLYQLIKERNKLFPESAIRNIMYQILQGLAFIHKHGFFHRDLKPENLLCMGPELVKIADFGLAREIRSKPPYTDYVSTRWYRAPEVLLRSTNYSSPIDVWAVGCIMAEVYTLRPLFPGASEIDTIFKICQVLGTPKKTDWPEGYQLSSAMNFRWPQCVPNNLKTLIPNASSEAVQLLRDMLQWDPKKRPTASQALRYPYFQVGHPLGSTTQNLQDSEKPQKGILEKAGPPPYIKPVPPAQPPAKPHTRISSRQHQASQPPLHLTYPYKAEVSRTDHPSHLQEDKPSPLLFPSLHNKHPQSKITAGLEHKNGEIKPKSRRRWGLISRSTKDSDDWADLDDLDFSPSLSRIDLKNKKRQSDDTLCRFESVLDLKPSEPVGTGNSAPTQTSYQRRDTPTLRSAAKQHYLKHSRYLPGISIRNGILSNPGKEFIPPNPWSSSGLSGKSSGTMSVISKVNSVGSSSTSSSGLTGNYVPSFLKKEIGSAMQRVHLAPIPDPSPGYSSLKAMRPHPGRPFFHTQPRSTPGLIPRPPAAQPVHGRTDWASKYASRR"}, "MAP3K3": {"target": "T4, MAP3K3 (Homo sapiens, UniProt Q99759)", "T4 sequence (Q99759 1-626)": "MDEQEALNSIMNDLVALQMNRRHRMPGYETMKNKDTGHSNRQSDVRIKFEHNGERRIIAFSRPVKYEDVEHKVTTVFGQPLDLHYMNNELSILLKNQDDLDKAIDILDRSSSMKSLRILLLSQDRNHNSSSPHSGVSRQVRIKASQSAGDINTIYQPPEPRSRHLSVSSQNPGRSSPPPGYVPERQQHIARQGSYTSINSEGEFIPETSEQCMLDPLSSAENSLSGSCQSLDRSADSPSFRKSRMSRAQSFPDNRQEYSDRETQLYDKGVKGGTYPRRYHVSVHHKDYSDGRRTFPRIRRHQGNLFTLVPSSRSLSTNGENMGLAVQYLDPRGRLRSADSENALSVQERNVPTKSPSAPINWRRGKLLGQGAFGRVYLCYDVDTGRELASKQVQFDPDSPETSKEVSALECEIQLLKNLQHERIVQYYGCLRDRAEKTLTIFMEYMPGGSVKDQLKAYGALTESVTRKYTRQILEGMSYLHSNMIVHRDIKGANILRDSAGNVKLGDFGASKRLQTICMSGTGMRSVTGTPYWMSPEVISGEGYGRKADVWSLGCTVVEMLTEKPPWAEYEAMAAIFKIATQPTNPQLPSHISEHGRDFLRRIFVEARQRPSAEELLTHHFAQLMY"}, "[2]": {"conditions": "read-out: Talazoparib (BMN 673) / %Ctrl @ 10000nM"}, "[3]": {"conditions": "read-out: Olaparib / %Ctrl @ 10000nM"}, "[4]": {"conditions": "read-out: Rucaparib / %Ctrl @ 10000nM, binding competition, % of control"}, "[5]": {"conditions": "read-out: Niraparib (MK-4827) / %Ctrl @ 10000nM"}}, "note": "Where two headings read alike, the source gives them in different places.", "data": [{"compound": "Cn1ncnc1[C@H]1c2n[nH]c(=O)c3cc(F)cc(c23)N[C@@H]1c1ccc(F)cc1", "note": "[Talazoparib]", "values": [{"measurement": "percent of control binding at 10 µM", "setting": "MYLK; [2]", "result": 77, "unit": "%"}, {"measurement": "percent of control binding at 10 µM", "setting": "[1]; [2]", "result": 84, "unit": "%"}, {"measurement": "percent of control binding at 10 µM", "setting": "HUNK; [2]", "result": 100, "unit": "%"}, {"measurement": "percent of control binding at 10 µM", "setting": "IGF1R; [2]", "result": 87, "unit": "%"}, {"measurement": "percent of control binding at 10 µM", "setting": "ICK; [2]", "result": 71, "unit": "%"}, {"measurement": "percent of control binding at 10 µM", "setting": "MAP3K3; [2]", "result": 94, "unit": "%"}]}, {"compound": "O=C(c1cc(Cc2n[nH]c(=O)c3ccccc23)ccc1F)N1CCN(C(=O)C2CC2)CC1", "note": "[Olaparib]", "values": [{"measurement": "percent of control binding at 10 µM", "setting": "MYLK; [3]", "result": 75, "unit": "%"}, {"measurement": "percent of control binding at 10 µM", "setting": "[1]; [3]", "result": 79, "unit": "%"}, {"measurement": "percent of control binding at 10 µM", "setting": "HUNK; [3]", "result": 88, "unit": "%"}, {"measurement": "percent of control binding at 10 µM", "setting": "IGF1R; [3]", "result": 95, "unit": "%"}, {"measurement": "percent of control binding at 10 µM", "setting": "ICK; [3]", "result": 92, "unit": "%"}, {"measurement": "percent of control binding at 10 µM", "setting": "MAP3K3; [3]", "result": 88, "unit": "%"}]}, {"compound": "CNCc1ccc(-c2[nH]c3cc(F)cc4c3c2CCNC4=O)cc1", "note": "[Rucaparib]", "values": [{"measurement": "percent of control binding at 10 µM", "setting": "MYLK; [4]", "result": 34, "unit": "%"}, {"measurement": "percent of control binding at 10 µM", "setting": "[1]; [4]", "result": 7.6, "unit": "%"}, {"measurement": "percent of control binding at 10 µM", "setting": "HUNK; [4]", "result": 100, "unit": "%"}, {"measurement": "percent of control binding at 10 µM", "setting": "IGF1R; [4]", "result": 98, "unit": "%"}, {"measurement": "percent of control binding at 10 µM", "setting": "ICK; [4]", "result": 64, "unit": "%"}, {"measurement": "percent of control binding at 10 µM", "setting": "MAP3K3; [4]", "result": 85, "unit": "%"}]}, {"compound": "NC(=O)c1cccc2cn(-c3ccc([C@@H]4CCCNC4)cc3)nc12", "note": "[Niraparib]", "values": [{"measurement": "percent of control binding at 10 µM", "setting": "MYLK; [5]", "result": 73, "unit": "%"}, {"measurement": "percent of control binding at 10 µM", "setting": "[1]; [5]", "result": 37, "unit": "%"}, {"measurement": "percent of control binding at 10 µM", "setting": "HUNK; [5]", "result": 98, "unit": "%"}, {"measurement": "percent of control binding at 10 µM", "setting": "IGF1R; [5]", "result": 97, "unit": "%"}, {"measurement": "percent of control binding at 10 µM", "setting": "ICK; [5]", "result": 63, "unit": "%"}, {"measurement": "percent of control binding at 10 µM", "setting": "MAP3K3; [5]", "result": 100, "unit": "%"}]}]}
